Test results published in patent US9815794B2, “Inhibition of bacterial biofilms and microbial growth with imidazole derivatives” (North Carolina State University, priority 2011, dated 2017).
≈ marks a conversion by molar mass, not a printed value.

Experiments:
MRSA = experiment: Dispersion of pre-formed biofilms; assay type: cell-based, methicillin-resistant S. aureus; details: Staphylococcus aureus, read-out: EC50, 50% dispersion of a pre-formed biofilm
Method: The ability of 15 and 19 to disperse pre-formed biofilms was also determined for all of the aforementioned bacterial strains (both marine and terrestrial). To quantify this effect, the EC50 value of each compound against each bacterial strain was determined, where EC50 is defined as the concentration of compound that elicits 50% dispersion of a pre-formed biofilm. Both compounds are able to disperse pre-formed biofilms at low micromolar concentrations. These concentrations are also microbicidal to planktonic bacteria. […]
Preformed Biofilms: Dispersion assays were performed by taking an overnight culture of bacterial strain and subculturing it at an OD600 of 0.01 into the necessary medium (brain heart infusion for E. faecium, tryptic soy broth with a 0.5% glucose supplement (TSBG) for MRSA, S. aureus and S. epidermidis, Luria-Bertani (LB) medium for MDRAB and E. coli, and tryptic soy broth with a 0.5% glucose supplement and a 3.0% NaCl supplement (TGN) for R. salexigens, V. cholerae, V. vulnificus and L. anguillarum.) The resulting bacterial suspension was aliquoted (100 μL) into the wells of a 96-well PVC microtiter plate. […] Biofilm dispersion was quantitated by measuring the OD540 of each well in which a negative control lane wherein no biofilm was formed served as a background and was subtracted out.

VRE = experiment: Broth microdilution MIC; assay type: cell-based, vancomycin resistant Enterococcus faecium; details: Enterococcus
Method: Once it was determined that this specific 4,5-disubstitution pattern imparted microbicidal activity onto the 2-AI framework, this activity was quantified by measuring the MIC of each derivative against a variety of representative pathogenic bacterial strains using the microdilution protocol (CSLI, Performance Standards for Antimicrobial Suceptibility Testing; Nineteenth Informational Supplement, Clinical and Laboratory Standards Institute, Wayne, Pa., 2009). E. coli, MDRAB, P. aeruginosa, MRSA, MSSA, S. epidermidis and VRE were used for initial evaluation. From this screen, compound 15 was determined to be the lead compound and had MIC values (μg/mL) of 2, 2, 1, 0.5, 0.25, and 1 against E. coli, MDRAB, MRSA, VRE, S. Epidermidis and MSSA.
S. aureus (ATCC #29213), S. epidermidis (ATCC #29886), MRSA (ATCC # BAA-44), MDRAB (ATCC # BAA-1605), vancomycin resistant Enterococcus faecium (VRE) (ATCC #51559) and E. coli (ATCC #35695) were obtained from the ATCC. Mechanically difibrinated sheep blood (DSB100) was obtained from Hemostat Labs. Mueller-Hinton medium was purchased from Fluka (#70192).
Broth Microdilution Method for MIC Determination.

E. coli [1] = experiment: Biofilm formation inhibition, crystal violet reporter assay; assay type: cell-based; details: Escherichia coli
Method: (§1) The ability of each member of the pilot library to inhibit either E. coli or MDRAB biofilm formation at 100 μM was assessed using a crystal violet reporter assay (O'Toole et al., Mol. Microbiol., 1998, 30: 295-304).
(§2) This is typically indicative of biofilm inhibition via a traditional microbicidal mechanism instead of a mechanism that modulates biofilm formation through non-microbicidal mechanisms. […] At this concentration, a 97% reduction in bacterial growth was observed.

MDRAB = experiment: as above; assay type: cell-based
Method: as §1

E. coli [2] = experiment: Growth curve analysis (A600); assay type: cell-based; details: at IC50 concentration (13 μM)
Text: as §2

| SMILES | EC50 (MRSA) | MIC (VRE) | inhibition at 100 µM (E. coli [1]; 100 μM) | IC50 (E. coli [1]; dose-response) | inhibition at 100 µM (MDRAB) | reduction in bacterial growth (E. coli [2]) |
| --- | --- | --- | --- | --- | --- | --- |
| CCCCCCc1[nH]c(N)nc1CCCCCc1ccccc1 [Compound 19, 5-hexyl-4-(5-phenylpentyl)-1H-imidazol-2-amine] | 74.9 ± 9.8 µM | 0.5 µg/mL (≈ 1.59 µM) | – | – | – | – |
| CCCCCc1[nH]c(N)nc1CCCCCc1ccccc1 [Compound 15, 5-pentyl-4-(5-phenylpentyl)-1H-imidazol-2-amine] | 33.9 ± 3.9 µM | 0.5 µg/mL (≈ 1.67 µM) | 83 ± 0.8% | 13 µM | 80.3 ± 8.1% | 97% |
